From patent EP1561465A2, “Methods of use of fluoroquinolone compounds against bacteria” (LG Life Sciences, Ltd., priority 1999, dated 2001)
Values after ≈ are worked out from the molar mass of the structure shown. Like-named read-outs stand apart in the source and are kept apart here.

Key:
Type in all cases: cell-based
Moraxella catarrhalis [1] = assay: MIC by agar dilution (NCCLS), 411 isolates Buenos Aires 1998-99; conditions: Moraxella catarrhalis (n = 59)
Moraxella catarrhalis [2] = assay: MIC by NCCLS reference broth microdilution, 450 respiratory tract pathogens
Haemophilus influenzae = assay: as above; conditions: Haemophilus influenzae; for MIC90: read-out: MIC90
[3] = MIC by agar dilution, Brucella HK agar, 491 anaerobic clinical isolates; conditions: clinical isolates of Bacteroides spp., Prevotella bivia and other Prevotella spp.
Escherichia coli = assay: MIC by NCCLS broth microdilution, 1100 Japanese clinical isolates 1997-1998; conditions: for MIC50 / MIC90: Escherichia coli
Salmonella spp. = assay: MIC by agar dilution (NCCLS M7-A4), 288 enteropathogenic isolates, gemifloxacin and 15 other antimicrobials
Staphylococcus aureus = assay: microbe, parasite or virus in culture; conditions: for MIC90: read-out: MIC90
Klebsiella oxytoca = assay: MIC by NCCLS broth microdilution, 1100 Japanese clinical isolates 1997-1998; conditions: Klebsiella oxytoca (n=40)
Proteus vulgaris = assay: as above
E. coli = assay: microbe, parasite or virus in culture; conditions: Escherichia coli
Enterobacter aerogenes = assay: MIC by NCCLS broth microdilution, 1100 Japanese clinical isolates 1997-1998; conditions: Enterobacter aerogenes (n=35)
Streptococcus pyogenes = assay: as above
Yersinia enterocolitica = assay: MIC by agar dilution (NCCLS M7-A4), 288 enteropathogenic isolates, eight quinolones; conditions: Yersinia enterocolitica (n = 22)
[4] = Haemophilus influenzae (n = 100)
[5] = Escherichia coli ciprofloxacin susceptible (n=37)
[6] = Staphylococcus aureus, Methicillin-susceptible (9)

Which results are given for `N[C@@H]1[C@H]2CN(c3nc4c(cc3F)c(=O)c(C(=O)O)cn4-c3ccc(F)cc3F)C[C@@H]12` [Trovafloxacin, trovafloxacin]?
MIC Range (Moraxella catarrhalis [1]): ≤0.004 to 0.03 µg/mL; MIC90 (Moraxella catarrhalis [1]; read-out: MIC90): 0.016 µg/mL (≈ 0.0384 µM); MIC (Moraxella catarrhalis [2]; Moraxella catarrhalis (n = 50)): 0.00375 to 0.06 µg/mL (≈ 0.00901 to 0.144 µM); MIC50 (Moraxella catarrhalis [2]; Moraxella catarrhalis (n = 50)): 0.015 µg/mL (≈ 0.036 µM); MIC90 (Moraxella catarrhalis [2]; Moraxella catarrhalis (n = 50)): 0.06 µg/mL (≈ 0.144 µM); MIC (Moraxella catarrhalis [2]; β-lactamase negative (n = 13)): 0.00375 to 0.06 µg/mL (≈ 0.00901 to 0.144 µM); MIC50 (Moraxella catarrhalis [2]; β-lactamase negative (n = 13)): 0.0075 µg/mL (≈ 0.018 µM); MIC90 (Moraxella catarrhalis [2]; β-lactamase negative (n = 13)): 0.036 µg/mL (≈ 0.0865 µM); MIC (Moraxella catarrhalis [2]; β-lactamase positive (n = 37)): 0.00375 to 0.06 µg/mL (≈ 0.00901 to 0.144 µM); MIC50 (Moraxella catarrhalis [2]; β-lactamase positive (n = 37)): 0.015 µg/mL (≈ 0.036 µM); MIC90 (Moraxella catarrhalis [2]; β-lactamase positive (n = 37)): 0.03 µg/mL (≈ 0.0721 µM); MIC (Haemophilus influenzae; [4]): 0.0075 to 0.25 µg/mL (≈ 0.018 to 0.6 µM); MIC50 (Haemophilus influenzae; [4]): ≤ 0.00075 µg/mL; MIC90 (Haemophilus influenzae; [4]): 0.06 µg/mL (≈ 0.144 µM); MIC (Haemophilus influenzae; β-lactamase negative (n = 80)): 0.0075 to 0.25 µg/mL (≈ 0.018 to 0.6 µM); MIC50 (Haemophilus influenzae; β-lactamase negative (n = 80)): ≤ 0.0075 µg/mL; MIC90 (Haemophilus influenzae; β-lactamase negative (n = 80)): 0.015 µg/mL (≈ 0.036 µM); MIC (Haemophilus influenzae; β-lactamase positive (n = 20)): 0.0075 to 0.06 µg/mL (≈ 0.018 to 0.144 µM); MIC50 (Haemophilus influenzae; β-lactamase positive (n = 20)): ≤ 0.0075 µg/mL; MIC90 (Haemophilus influenzae; β-lactamase positive (n = 20)): 0.06 µg/mL (≈ 0.144 µM); MIC90 [3]: 1 to 8 µg/mL (≈ 2.4 to 19.2 µM); MIC Range (Escherichia coli; [5]): ≤0.008 to 0.25 µg/mL; MIC50 (Escherichia coli; Escherichia coli ciprofloxacin resistant (n=5)): 64 µg/mL (≈ 154 µM); MIC90 (Escherichia coli; Escherichia coli ciprofloxacin resistant (n=5), values marked *: MIC80 value): 64 µg/mL (≈ 154 µM); MIC50 (Escherichia coli; [5]): 0.016 µg/mL (≈ 0.0384 µM); MIC90 (Escherichia coli; [5]): 0.032 µg/mL (≈ 0.0769 µM); MIC (Salmonella spp.; S. hadar(2), isolates with MICs for ciprofloxacin ≥[…], read-out: MIC): 0.5 mg/L (≈ 1.2 µM); MIC (Salmonella spp.; S. newport(1), isolate with MIC for ciprofloxacin ≥[…], read-out: MIC): 0.5 mg/L (≈ 1.2 µM); MIC (Salmonella spp.; S. virchow(2), isolates with MICs for ciprofloxacin ≥[…], read-out: MIC): 0.25 mg/L (≈ 0.6 µM); MIC (mg/L) Range (Salmonella spp.; Salmonella spp. N= 106): ≤0.015 to 1 mg/L; MIC (Salmonella spp.; Salmonella, S. tshiongwe(1), isolate with MIC for ciprofloxacin ≥[…], read-out: MIC): 1 mg/L (≈ 2.4 µM); MIC (Salmonella spp.; Salmonella, read-out: MIC (mg/L) 50%, Salmonella spp. N= 106): 0.06 mg/L (≈ 0.144 µM); MIC (Salmonella spp.; Salmonella, read-out: MIC (mg/L) 90%, Salmonella spp. N= 106): 0.25 mg/L (≈ 0.6 µM); MIC Range (Staphylococcus aureus; Methicillin-resistant (38)): 0.031 to 16 µg/mL; MIC Range (Staphylococcus aureus; Methicillin-susceptible (9)): 0.031 to 0.5 µg/mL; MIC90 (Staphylococcus aureus; Staphylococcus aureus, Methicillin-resistant (38)): 16 µg/mL (≈ 38.4 µM); MIC50 (Staphylococcus aureus; [6]): 0.031 µg/mL (≈ 0.0745 µM); MIC90 (Staphylococcus aureus; [6]): 0.5 µg/mL (≈ 1.2 µM); MIC (Staphylococcus aureus; Staphylococcus aureus, S. aureus KU2240, mutant type Wild (wild strain)): 0.063 µg/mL (≈ 0.151 µM); MIC (Staphylococcus aureus; Staphylococcus aureus, S. aureus KU2241, mutant type NorA (efflux-mediated quinolone resistant)): 0.063 µg/mL (≈ 0.151 µM); MIC (Staphylococcus aureus; Staphylococcus aureus, S. aureus KU2242, mutant type T (DNA topoisomerase IV)): 0.25 µg/mL (≈ 0.6 µM); MIC (Staphylococcus aureus; Staphylococcus aureus, S. aureus KU2243, mutant type G+T (DNA gyrase and topoisomerase IV)): 32 µg/mL (≈ 76.9 µM); MIC (Staphylococcus aureus; Staphylococcus aureus, S. aureus KU2244, mutant type G (DNA gyrase)): 0.063 µg/mL (≈ 0.151 µM); MIC (Staphylococcus aureus; Staphylococcus aureus, S. aureus KU2246, mutant type T (DNA topoisomerase IV)): 0.25 µg/mL (≈ 0.6 µM); MIC50 (Klebsiella oxytoca): 0.032 µg/mL (≈ 0.0769 µM); MIC90 (Klebsiella oxytoca): 8 µg/mL (≈ 19.2 µM); MIC Range (Klebsiella oxytoca): ≤0.008 to 32 µg/mL; MIC50 (Proteus vulgaris; Proteus vulgaris): 0.125 µg/mL (≈ 0.3 µM); MIC Range (Proteus vulgaris; Proteus vulgaris (n=25)): 0.063 to 2 µg/mL; MIC90 (Proteus vulgaris; Proteus vulgaris (n=25), read-out: MIC90): 1 µg/mL (≈ 2.4 µM); MIC50 (E. coli; E. coli (13 strains), quinolone-resistant, read-out: MIC50): 0.063 µg/mL (≈ 0.151 µM); MIC90 (E. coli; E. coli (13 strains), quinolone-resistant, read-out: MIC90): 0.5 µg/mL (≈ 1.2 µM); MIC (E. coli; E. coli KU1029, mutant type SP (spontaneous mutant in the DNA gyrase)): 0.063 µg/mL (≈ 0.151 µM); MIC (E. coli; E. coli KU1030, mutant type SP): 0.063 µg/mL (≈ 0.151 µM); MIC (E. coli; E. coli KU1031, mutant type SP): 0.063 µg/mL (≈ 0.151 µM); MIC (E. coli; E. coli KU1032, mutant type SP): 0.25 µg/mL (≈ 0.6 µM); MIC (E. coli; E. coli KU1033, mutant type SP): 0.031 µg/mL (≈ 0.0745 µM); MIC (E. coli; E. coli KU1034, mutant type GA (DNA gyrase A)): 0.5 µg/mL (≈ 1.2 µM); MIC (E. coli; E. coli KU1035, mutant type GA (DNA gyrase A)): 0.5 µg/mL (≈ 1.2 µM); MIC (E. coli; E. coli KU1036, mutant type GB (DNA gyrase B)): 0.063 µg/mL (≈ 0.151 µM); MIC (E. coli; E. coli KU1038, mutant type SP): 0.063 µg/mL (≈ 0.151 µM); MIC (E. coli; E. coli KU1039, mutant type SP): 0.25 µg/mL (≈ 0.6 µM); MIC (E. coli; E. coli KU1040, mutant type SP): ≤ 0.008 µg/mL; MIC (E. coli; E. coli KU1041, mutant type SP): 0.5 µg/mL (≈ 1.2 µM); MIC (E. coli; E. coli KU1042, mutant type SP): 0.125 µg/mL (≈ 0.3 µM); MIC Range (Enterobacter aerogenes): ≤0.008 to 0.125 µg/mL; MIC50 (Enterobacter aerogenes; Klebsiella aerogenes): 0.032 µg/mL (≈ 0.0769 µM); MIC90 (Enterobacter aerogenes; Klebsiella aerogenes): 0.063 µg/mL (≈ 0.151 µM); MIC50 (Streptococcus pyogenes; Streptococcus pyogenes): 0.125 µg/mL (≈ 0.3 µM); MIC90 (Streptococcus pyogenes; Streptococcus pyogenes (n=51)): 0.5 µg/mL (≈ 1.2 µM); MIC Range (Streptococcus pyogenes; Streptococcus pyogenes (n=51)): 0.063 to 0.5 µg/mL; % Susceptible (Yersinia enterocolitica): 100%; MIC50 (Yersinia enterocolitica): 0.06 µg/mL (≈ 0.144 µM); MIC90 (Yersinia enterocolitica): 0.06 µg/mL (≈ 0.144 µM); MIC Range (Yersinia enterocolitica): ≤0.015 to 0.25 µg/mL
